According to patent publication US11873298B2, “Compounds and uses thereof” (JANSSEN PHARMACEUTICA NV, priority 2017, dated 2024):
pIC50: −log10 of the molar value.

How the values were obtained:
Format in all cases: cell-based
SCD5 = biological target: T1, SCD5 (Homo sapiens, UniProt Q86SK9); experiment: Growth inhibition of humanized yeast strain expressing SCD5 as sole desaturase; details: for pIC50 / SCD5 % Max Inhibition: humanized yeast strain expressing SCD5
T1 construct: host or cells: S. cerevisiae ole1Δ strain (W303 pdr1Δ pdr3Δ background), plasmid pRS316 with TDH3 promoter and CYC1 terminator
T1 sequence (Q86SK9 1-330): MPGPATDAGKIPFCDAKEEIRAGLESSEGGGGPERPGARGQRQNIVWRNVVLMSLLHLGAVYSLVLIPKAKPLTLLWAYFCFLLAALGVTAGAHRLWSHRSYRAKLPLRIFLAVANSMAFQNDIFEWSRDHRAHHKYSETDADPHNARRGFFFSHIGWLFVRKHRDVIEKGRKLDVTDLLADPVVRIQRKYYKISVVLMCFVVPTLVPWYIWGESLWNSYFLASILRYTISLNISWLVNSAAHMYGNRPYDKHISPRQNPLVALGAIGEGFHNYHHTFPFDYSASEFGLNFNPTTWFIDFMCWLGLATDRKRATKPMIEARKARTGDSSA
In short: (§1)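 Plasmid-complemented ole1Δ yeast, drug-pump deleted (pdr1Δ pdr3Δ), depend solely on the introduced Ole1, SCD1 or SCD5 desaturase. Compounds are added from DMSO to cells in uracil-free galactose medium, 2× density 0.02, and OD600 is read after 24 h or 40 h respectively.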

Ole1 = biological target: T2, Ole1 (Saccharomyces cerevisiae, UniProt P21147); experiment: Growth inhibition of yeast strain expressing Ole1 as sole desaturase; details: for pIC50 / OLE1 % Max Inhibition: yeast strain expressing Ole1 as sole desaturase
T2 construct: expressed in transfected cells; host or cells: S. cerevisiae ole1Δ strain (W303 pdr1Δ pdr3Δ background), plasmid pRS316 with TDH3 promoter and CYC1 terminator
T2 sequence (P21147 1-510): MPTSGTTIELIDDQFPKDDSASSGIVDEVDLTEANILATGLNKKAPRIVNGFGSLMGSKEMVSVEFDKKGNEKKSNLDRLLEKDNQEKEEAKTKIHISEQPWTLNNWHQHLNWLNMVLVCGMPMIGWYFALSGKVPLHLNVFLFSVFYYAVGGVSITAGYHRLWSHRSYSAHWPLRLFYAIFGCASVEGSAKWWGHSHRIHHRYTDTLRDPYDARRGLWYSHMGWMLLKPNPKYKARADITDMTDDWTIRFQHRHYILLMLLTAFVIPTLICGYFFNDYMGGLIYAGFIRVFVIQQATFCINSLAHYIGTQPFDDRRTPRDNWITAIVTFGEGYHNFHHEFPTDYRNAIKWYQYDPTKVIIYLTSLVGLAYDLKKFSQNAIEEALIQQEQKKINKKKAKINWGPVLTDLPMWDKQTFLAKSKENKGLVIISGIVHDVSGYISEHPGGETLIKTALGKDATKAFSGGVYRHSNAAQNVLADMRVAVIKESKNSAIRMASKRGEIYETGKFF
In short: as §1

SCD1 = biological target: T3, SCD1 (Homo sapiens, UniProt O00767); experiment: Growth inhibition of humanized yeast strain expressing SCD1 as sole desaturase; details: for pIC50 / SCD1 % Max Inhibition: humanized yeast strain expressing SCD1
T3 construct: host or cells: S. cerevisiae ole1Δ strain (W303 pdr1Δ pdr3Δ background), plasmid pRS316 with TDH3 promoter and CYC1 terminator
T3 sequence (O00767 1-359): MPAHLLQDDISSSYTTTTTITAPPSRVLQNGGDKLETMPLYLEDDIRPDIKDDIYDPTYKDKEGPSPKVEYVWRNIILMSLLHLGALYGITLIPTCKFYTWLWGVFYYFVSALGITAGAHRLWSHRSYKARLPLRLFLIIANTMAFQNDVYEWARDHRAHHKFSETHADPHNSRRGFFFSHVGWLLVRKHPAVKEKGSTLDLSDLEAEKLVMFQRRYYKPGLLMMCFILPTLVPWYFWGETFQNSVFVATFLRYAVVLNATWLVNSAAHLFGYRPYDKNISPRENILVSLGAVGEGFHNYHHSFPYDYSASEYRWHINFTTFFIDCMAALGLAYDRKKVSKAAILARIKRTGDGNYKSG
In short: as §1

| SMILES | half-maximal inhibitory concentration (IC50) (SCD5; SCD5 humanized strain, FIG. 6) | growth of yeast expressing OLE1 in presence of inhibitor (Ole1; FIG. 6) | half-maximal inhibitory concentration (IC50) (SCD1; SCD1 humanized strain, FIG. 6) | pIC50 (SCD5) | SCD5 % Max Inhibition (SCD5) [%] | pIC50 (Ole1) | OLE1 % Max Inhibition (Ole1) [%] | pIC50 (SCD1) | SCD1 % Max Inhibition (SCD1) [%] |
| --- | --- | --- | --- | --- | --- | --- | --- | --- | --- |
| CNC(=O)c1cccc(NC(=O)N2CCC(Oc3ccccc3Cl)CC2)c1 [Compound A939572, reference compound] | low nanomolar | resistant | low nanomolar | – | – | – | – | – | – |
| CCN1C(=O)COc2ccc(-c3nc(C(C)c4ccccc4)no3)cc21 (stereo not drawn) [Compound 160] | – | – | – | 4.61 | 28.51 | 4.44 | 71.55 | 4.39 | 63.44 |
| CCOC(=O)C(C)(C)n1cc2ccc(-c3noc(C4CCN(C(=O)C5CC(=O)N(c6ccccc6)C5)CC4)n3)cc2n1 (stereo not drawn) [Compound 193] | – | – | – | < 4.35 | 85.76 | < 4.35 | 89.35 | < 4.35 | 80.72 |
| Cc1nn(C)c2cc(-c3noc(C4CCN(C(=O)c5ccccc5Cl)CC4)n3)ccc12 [Compound 288] | – | – | – | < 4.35 | 7.52 | < 4.35 | 7.14 | – | 8.71 |
| Cc1nn(C)c2cc(-c3noc(N4C[C@H]5CN(C(=O)CNC(=O)c6ccccc6)C[C@H]5C4)n3)ccc12 [Compound 207] | – | – | – | < 4.35 | 72.56 | < 4.35 | 5.39 | < 4.35 | 86.42 |
| CC(C)n1cc2ccc(-c3noc(C4CCN(C(=O)OC(C)(C)C)CC4)n3)cc2n1 [Compound 277] | – | – | – | < 4.35 | 74.99 | < 4.35 | 94.36 | – | 76.49 |
| Cc1nn(C)c2cc(-c3noc(C4CCN(C(=O)C5CNC(=O)C5)CC4)n3)ccc12 (stereo not drawn) [Compound 126] | – | – | – | 4.52 | 79.08 | < 4.35 | 73.29 | < 4.35 | 69.80 |
| Cc1nn(C)c2cc(-c3noc(N4CCN(C(=O)CN5Cc6ccccc6C5=O)CC4)n3)ccc12 [Compound 219] | – | – | – | < 4.35 | 89.83 | < 4.35 | 3.50 | < 4.35 | 95.22 |
| Cc1nn(C)c2cc(-c3nc([C@@H]4C[C@H]5CC[C@@H](C4)N5C(=O)OC(C)(C)C)no3)ccc12 [Compound 341] | – | – | – | < 4.35 | 45.6 | < 4.35 | 91.7 | < 4.35 | 45.2 |
| O=C(NCC(=O)N1CCC(c2nc(-c3ccc4nonc4c3)no2)CC1)c1ccccc1 [Compound 163] | – | – | – | < 4.35 | 24.77 | < 4.35 | 71.84 | 4.44 | 55.99 |
| Cc1nn(C)c2cc(-c3noc(C4CCN(C(=O)CN5Cc6ccccc6C5=O)CC4)n3)cnc12 [Compound 200] | – | – | – | 4.39 | 64.72 | < 4.35 | 2.69 | < 4.35 | 79.67 |
| CC(C)c1ccc(C(=O)N2CCC(c3nc(N4CC5(COC5)C4)no3)CC2)cc1 [Compound 337] | – | – | – | < 4.35 | 61.6 | < 4.35 | 86.4 | – | 49.6 |
| CCOc1ccc(-c2noc(N3CCC(C(=O)N4CCO[C@H](c5ccccc5)C4)CC3)n2)cc1OC [Compound 218] | – | – | – | < 4.35 | 25.15 | < 4.35 | 4.63 | < 4.35 | 48.31 |
| Cn1c(=O)n(C)c2cc(-c3noc(C4CCN(C(=O)[C@H]5CC(=O)N(c6ccccn6)C5)CC4)n3)ccc21 [Compound 256] | – | – | – | < 4.35 | 72.11 | < 4.35 | 4.16 | – | 76.04 |
| COc1cc(-c2noc(C3CCN(C(=O)CNC(=O)c4ccccc4)CC3)n2)ccc1OC(F)(F)F [Compound 253] | – | – | – | < 4.35 | 63.11 | < 4.35 | 106.42 | – | 62.07 |
| Cc1nn(C)c2cc(-c3noc(C4CCN(C(=O)[C@@H](CO)NC(=O)c5ccccc5)CC4)n3)ccc12 [Compound 186] | – | – | – | 4.52 | 73.51 | < 4.35 | 35.40 | < 4.35 | 86.16 |
| Cc1nn(C)c2cc(-c3noc(C4CCN(C(=O)C5CN(C(=O)c6ccccc6)C5)CC4)n3)ccc12 [Compound 236] | – | – | – | < 4.35 | 3.14 | < 4.35 | 8.46 | < 4.35 | 77.23 |
| CC(C)(C#N)C1CN(c2noc(C3CCN(C(=O)C4CC(=O)N(c5ccccc5)C4)CC3)n2)C1 (stereo not drawn) [Compound 254] | – | – | – | < 4.35 | 83.13 | < 4.35 | 92.77 | < 4.35 | 69.80 |
| COc1ccc(-c2noc(C3CCN(C(=O)[C@@H](CO)NC(=O)c4ccccc4)CC3)n2)cc1OC [Compound 185] | – | – | – | < 4.35 | 72.91 | < 4.35 | 93.51 | < 4.35 | 97.91 |
| O=C(CN1Cc2ccccc2C1=O)N1CCC(c2nc(-c3ccc4nonc4c3)no2)CC1 [Compound 182] | – | – | – | < 4.35 | 79.82 | < 4.35 | 124.27 | < 4.35 | 113.27 |
| COc1cc(-c2noc(C3CCN(C(=O)CNC(=O)c4ccccc4)CC3)n2)ccc1OC1CC1 [Compound 249] | – | – | – | 4.38 | 61.88 | < 4.35 | 88.69 | – | 80.12 |
| O=C(C1CC(=O)N(c2ccccc2)C1)N1CCC(c2nc(-c3ccc4nonc4c3)no2)CC1 (stereo not drawn) [Compound 164] | – | – | – | < 4.35 | 73.90 | < 4.35 | 96.96 | < 4.35 | 102.20 |
| CCOc1ccc(-c2noc(C3CCN(C(=O)CN4Cc5cccc(F)c5C4=O)CC3)n2)cc1OC [Compound 178] | – | – | – | < 4.35 | 85.67 | < 4.35 | 7.39 | < 4.35 | 114.07 |
| COc1ccc(-c2noc(C3CCN(C(=O)c4cccc(C(C)C)c4)CC3)n2)cc1OC [Compound 167] | – | – | – | < 4.35 | 2.38 | 4.42 | 57.28 | < 4.35 | 6.11 |
| COc1ccc(-c2noc(C3CCN(C(=O)C4CC(=O)N(c5cccc(C#N)c5)C4)CC3)n2)cc1OC(C)C (stereo not drawn) [Compound 296] | – | – | – | < 4.35 | 22.6 | < 4.35 | 99.1 | < 4.35 | 86.6 |
